Experimental data published in US8735361B2, “C1ORF59 peptides and vaccines including the same” (Oncotherapy Science, Inc., priority 2008, dated 2014).

What was measured:
peptide-pulsed A24 LCL [1] = assay: IFN-gamma ELISA assay of expanded CTL lines (HLA-A*2402); format: cell-based, human; conditions: target cells pulsed with corresponding peptide compared to target cells without peptide pulse
Protocol: CTLs were expanded in culture using the method similar to the one described by Riddell et al. (Walter E A et al., N Engl J Med 1995 Oct. 19, 333(16): 1038-44; Riddell S R et al., Nat Med 1996 February, 2(2): 216-23). A total of 5×10^4 CTLs were suspended in 25 ml of AIM-V/5% AS medium with 2 kinds of human B-lymphoblastoid cell lines, inactivated by MMC, in the presence of 40 ng/ml of anti-CD3 monoclonal antibody (Pharmingen). One day after initiating the cultures, 120 IU/ml of IL-2 were added to the cultures. The cultures were fed with fresh AIM-V/5% AS medium containing 30 IU/ml of IL-2 on days 5, 8 and 11 (Tanaka H et al., Br J Cancer 2001 Jan. 5, 84(1): 94-9; Umano Y et al., Br J Cancer 2001 Apr. 20, 84(8): 1052-7; Uchida N et al., Clin Cancer Res 2004 Dec. 15, 10(24): 8577-86; Suda T et al., Cancer Sci 2006 May, 97(5): 411-9; Watanabe T et al., Cancer Sci 2005 August, 96(8): 498-506).
(§1) To examine specific CTL activity, interferon (IFN)-gamma enzyme-linked immunospot (ELISPOT) assay and IFN-gamma enzyme-linked immunosorbent assay (ELISA) were performed. Specifically, peptide-pulsed A24 LCL (1×10^4/well) was prepared as stimulator cells. Cultured cells in 48 wells were used as responder cells. IFN-gamma ELISPOT assay and IFN-gamma ELISA assay were performed under manufacture procedure.

peptide-pulsed A24 LCL [2] = assay: In vitro CTL induction with HLA-A*2402 restricted peptides, IFN-gamma ELISPOT assay; format: cell-based, human; conditions: CTLs from HLA-A*2402 positive donor stimulated with peptide-pulsed DCs; compared to control wells
Excerpt: Monocyte-derived dendritic cells (DCs) were used as antigen-presenting cells (APCs) to induce cytotoxic T lymphocyte (CTL) responses against peptides presented on human leukocyte antigen (HLA). DCs were generated in vitro as described elsewhere (Nakahara S et al., Cancer Res 2003 Jul. 15, 63(14): 4112-8). Specifically, peripheral blood mononuclear cells (PBMCs) isolated from a normal volunteer (HLA-A*2402 positive) by Ficoll-Plaque (Pharmacia) solution were separated by adherence to a plastic tissue culture dish (Becton Dickinson) so as to enrich them as the monocyte fraction. The monocyte-enriched population was cultured in the presence of 1000 U/ml of granulocyte-macrophage colony-stimulating factor (GM-CSF) (R&D System) and 1000 U/ml of interleukin (IL)-4 (R&D System) in AIM-V Medium (Invitrogen) containing 2% heat-inactivated autologous serum (AS). After 7 days of culture, the cytokine-induced DCs were pulsed with 20 micro gram/ml of each of the synthesized peptides in the presence of 3 micro gram/ml of beta 2-microglobulin for 3 hrs at 37 degrees C. in AIM-V Medium. The generated cells appeared to express DC-associated molecules, such as CD80, CD83, CD86 and HLA class II, on their cell surfaces (data not shown). These peptide-pulsed DCs were then inactivated by X-irradiated (20 Gy) and mixed at a 1:20 ratio with autologous CD8+ T cells, obtained by positive selection with CD8 Positive Isolation Kit (Dynal). These cultures were set up in 48-well plates (Corning); each well contained 1.5×10^4 peptide-pulsed DCs, 3×10^5 CD8+ T cells and 10 ng/ml of IL-7 (R&D System) in 0.5 ml of AIM-V/2% AS medium. Three days later, these cultures were supplemented with IL-2 (CHIRON) to a final concentration of 20 IU/ml. On day 7 and 14, the T cells were further stimulated with the autologous peptide-pulsed DCs. The DCs were prepared each time by the same way described above. CTL was tested against peptide-pulsed A24 LCL or T2 cells after the 3rd round of peptide stimulation on day 21 (Tanaka H et al., Br J Cancer 2001 Jan. 5, 84(1): 94-9; Umano Y et al., Br J Cancer 2001 Apr. 20, 84(8): 1052-7; Uchida N et al., Clin Cancer Res 2004 Dec. 15, 10(24): 8577-86; Suda T et al., Cancer Sci 2006 May, 97(5): 411-9; Watanabe T et al., Cancer Sci 2005 August, 96(8): 498-506)
as §1

peptide-pulsed A24 LCL [3] = assay: IFN-gamma ELISA assay of CTL clones established by limiting dilution (HLA-A*2402); format: cell-based, human; conditions: CTL clones against target cells pulsed with peptide
Protocol: The dilutions were made to have 0.3, 1, and 3 CTLs/well in 96 round-bottomed micro titer plate (Nalge Nunc International). CTLs were cultured with 1×10^4 cells/well of 2 kinds of human B-lymphoblastoid cell lines, 30 ng/ml of anti-CD3 antibody, and 125 U/ml of IL-2 in a total of 150 microlitter/well of AIM-V Medium containing 5% AS. 50 microlitter/well of IL-2 were added to the medium 10 days later so to reach a final concentration of 125 U/ml IL-2. CTL activity was tested on the 14th day, and CTL clones were expanded using the same method as described above (Uchida N et al., Clin Cancer Res 2004 Dec. 15, 10(24): 8577-86; Suda T et al., Cancer Sci 2006 May, 97(5): 411-9; Watanabe T et al., Cancer Sci 2005 August, 96(8): 498-506).
as §1

[4] = tested on: COS7 cells transfected with C1orf59 and HLA-A*2402; assay: Specific CTL activity against target cells exogenously expressing C1orf59 and HLA-A*2402; format: cell-based, African green monkey
Excerpt: The cDNA encoding an open reading frame of target genes or HLA-A24 was amplified by PCR. The PCR-amplified product was cloned into pCAGGS vector. The plasmids were transfected into COS7, which is the target genes and HLA-A24-null cell line, using lipofectamine 2000 (Invitrogen) according to the manufacturer's recommended procedures. After 2 days from transfection, the transfected cells were harvested with versene (Invitrogen) and used as the target cells (5×10^4 cells/well) for CTL activity assay.
The established CTL lines raised against these peptides were examined for their ability to recognize target cells that express C1orf59 and HLA-A*2402 molecule. Specific CTL activity against COS7 cells which transfected with both the full length of C1orf59 and HLA-A*2402 molecule gene (a specific model for the target cells that express C1orf59 and HLA-A*2402 gene) was tested using the CTL lines raised by corresponding peptide as the effecter cells. COS7 cells transfected with either full length of C1orf59 genes or HLA-A*2402 were prepared as control.

GYCTQIGIF [SEQ ID NO: 26]
IFN-gamma production of CTL lines by ELISA (peptide-pulsed A24 LCL [1]): potent IFN-gamma production | Peptide specific CTL activity, IFN-gamma production by ELISPOT (peptide-pulsed A24 LCL [2]): potent IFN-gamma production | IFN-gamma production of CTL clones by ELISA (peptide-pulsed A24 LCL [3]): Potent IFN-gamma productions | Specific CTL activity against control COS7 cells ([4]; COS7 transfected with either full length C1orf59 or HLA-A*2402 alone): no significant specific CTL activity | Specific CTL activity against COS7 cells expressing both C1orf59 and HLA-A*2402 ([4]; CTLs raised by the peptide as effector cells): potent CTL activity
